Results reported in patent US12582645B2, “Chemokine CXCR4 receptor modulators and uses related thereto” (Emory University, priority 2017, dated 2026).
pIC50: −log10 of the molar value.

These compounds were tested against T1, CXCR4 (Homo sapiens, UniProt P61073) (assay: CXCR4-CEM calcium flux assay, antagonist mode (inhibition of SDF-1α-induced calcium flux)). Settings: CCRF-CEM cells expressing endogenous CXCR4, stimulated with 4 nM SDF-1α, read-out: CXCR4 Ca^2+ Flux IC50.
T1 construct: Human T lymphoblast cells (CCRF-CEM) expressing endogenous CXCR4 receptors; endogenous in cells; host or cells: CCRF-CEM (human T lymphoblast cells)
Assay type: cell-based
Protocol: CXCR4-CEM Calcium Flux Assays
Exemplary compounds of the invention were tested for their ability to induce or inhibit calcium flux in CCRF-CEM cells, a human cell line that endogenously expresses CXCR4. Activation of CXCR4 stimulates G protein signaling which, in CCRF-CEM cells, causes a series of downstream events that leads to the release of intracellular calcium stores, or calcium flux. Calcium ion concentrations can be easily measured using a wide variety of […] calcium indicators and, as a result, calcium flux assays are commonly employed methods for measuring G protein-coupled receptor (GPCR) activity. Because the therapeutic potential of CXCR4 antagonists as anti-cancer agents likely relies on their ability to inhibit CXCR4-mediated G protein signaling, this assay was utilized as a first-pass measure of inhibitor potency.
The cells were then equilibrated to room temperature for 30 minutes before assay. […] For “antagonist mode” assessment, the cells are subsequently incubated for 25 minutes at room temperature. SDF-1α (R&D System Cat #350-NS/CF) was then added at a final concentration of 4 nM to stimulate the cells. Inhibition of SDF-1α-induced calcium flux was monitored by FDSS6000 for 90 seconds.
After correcting for background, EC50 values were determined. […] Inhibition data for the test compound over a range of concentrations was plotted as percentage inhibition of the test compound as compared to an internal control compound.

T1 sequence (P61073 whole entry): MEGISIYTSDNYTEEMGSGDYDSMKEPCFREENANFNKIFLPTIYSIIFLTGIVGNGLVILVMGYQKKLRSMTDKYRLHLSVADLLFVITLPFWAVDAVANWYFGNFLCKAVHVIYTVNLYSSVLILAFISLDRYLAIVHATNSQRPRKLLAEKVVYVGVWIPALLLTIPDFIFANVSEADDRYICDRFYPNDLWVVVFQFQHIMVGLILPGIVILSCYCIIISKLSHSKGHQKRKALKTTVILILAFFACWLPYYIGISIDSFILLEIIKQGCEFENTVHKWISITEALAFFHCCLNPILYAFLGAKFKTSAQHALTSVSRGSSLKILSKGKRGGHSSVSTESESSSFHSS

Structure (SMILES)	pIC50
Cc1cnc(CN(C)C[C@H]2Cc3c(cccc3N3CCNCC3)CN2)c(C)c1 [EMU107, (R)-1-(3,5-dimethylpyridin-2-yl)-N-methyl-N-((5-(piperazin-1-yl)-1,2,3,4-tetrahydroisoquinolin-3-yl)methyl)methanamine]	7.67
N[C@H]1CC[C@H](CN(C[C@H]2Cc3ccccc3CN2)[C@H]2CCCc3cccnc32)CC1 [EMU074]	6.55
FC1(F)CCC(CN(C[C@H]2Cc3c(cccc3N3CCNCC3)CN2)[C@H]2CCCc3cccnc32)CC1 [EMU120]	6.30
C[C@@H]1CN(c2cccc3c2CC(CN(C)[C@H]2CCCc4cccnc42)NC3)C[C@H](C)N1 (single isomer, unassigned) [EMU096 (Stereoisomer 1)]	7.21
C/C(CN)=C(/F)CN(C[C@H]1Cc2ccccc2CN1)[C@H]1CCCc2cccnc21 [EMU141]	7.36
c1cnc2c(c1)CCC[C@@H]2N(CC1CCCCC1)CC1Cc2c(cccc2N2CCNCC2)CN1 (single isomer, unassigned) [EMU100 (Stereoisomer 2)]	5.89
C(=C\CN(C[C@H]1Cc2ccccc2CN1)[C@H]1CCCc2cccnc21)/CNC1CCOCC1 [EMU155, (E)-N1-(tetrahydro-2H-pyran-4-yl)-N4-(((R)-1,2,3,4-tetrahydroisoquinolin-3-yl)methyl)-N4-((S)-5,6,7,8-tetrahydroquinolin-8-yl)but-2-ene-1,4-diamine]	7.81
NCCCCN(Cc1cscn1)C[C@H]1Cc2ccccc2CN1 [EMU104, (R)—N1-((1,2,3,4-tetrahydroisoquinolin-3-yl)methyl)-N1-(thiazol-4-ylmethyl)butane-1,4-diamine]	~4.78
c1cnc2c(c1)CCC[C@@H]2N(CC1CC1)C[C@H]1Cc2c(cccc2N2CCNCC2)CN1 [EMU119]	7.57
CN(CC1Cc2c(cccc2N2CCNCC2)CN1)[C@H]1CCCc2cccnc21 (single isomer, unassigned) [EMU034 (Stereoisomer 1)]	8.22
CN(CC1Cc2c(cccc2NC2CCNCC2)CN1)[C@H]1CCCc2cccnc21 (single isomer, unassigned) [EMU044 (Stereoisomer 2)]	5.77
NCC1CC1CN(C[C@H]1Cc2ccccc2CN1)[C@H]1CCCc2cccnc21 (single isomer, unassigned) [EMU030 (Stereoisomer 2)]	7.72
CN(C[C@H]1Cc2c(cccc2N2C[C@@H]3C[C@H]2CN3)CN1)C1CCCc2cccnc21 (stereo partly shown) [EMU135]	6.84
CN(CC1Cc2c(cccc2N2CCNCC2)CN1)[C@H]1CCCc2cccnc21 (single isomer, unassigned) [EMU034 (Stereoisomer 2)]	6.50
CN(C[C@H]1Cc2c(cccc2N[C@H]2CC[C@H](N)CC2)CN1)[C@H]1CCCc2cccnc21 [EMU089]	6.12
CN(C[C@H]1Cc2c(cccc2N2CC3CNCC3C2)CN1)C1CCCc2cccnc21 (stereo partly shown) [EMU062]	7.99
NCCCCN(Cc1nccs1)C[C@H]1Cc2ccccc2CN1 [EMU111, (R)—N1-((1,2,3,4-tetrahydroisoquinolin-3-yl)methyl)-N1-(thiazol-2-ylmethyl)butane-1,4-diamine]	< 4.48
Cc1cccnc1CN(CCCN1CCNCC1)C[C@H]1Cc2ccccc2CN1 [EMU149, (R)—N-((3-methylpyridin-2-yl)methyl)-3-(piperazin-1-yl)-N-((1,2,3,4-tetrahydroisoquinolin-3-yl)methyl)propan-1-amine]	7.04
C/C(CN(C[C@H]1Cc2ccccc2CN1)[C@H]1CCCc2cccnc21)=C(\F)CN [EMU125]	7.10
FC1(F)CCC(NC/C=C/CN(C[C@H]2Cc3ccccc3CN2)[C@H]2CCCc3cccnc32)CC1 [EMU154, (E)-N1-(4,4-difluorocyclohexyl)-N4-(((R)-1,2,3,4-tetrahydroisoquinolin-3-yl)methyl)-N4-((S)-5,6,7,8-tetrahydroquinolin-8-yl)but-2-ene-1,4-diamine]	7.09
CN(C[C@H]1Cc2c(cccc2N2CCNC(C)(C)C2)CN1)[C@H]1CCCc2cccnc21 [EMU136]	7.47
CN1CCN(c2cccc3c2C[C@H](CN(C)[C@H]2CCCc4cccnc42)NC3)CC1 [EMU116]	7.53
NC/C=C\CN(CC1Cc2ncccc2CN1)[C@H]1CCCc2cccnc21 (single isomer, unassigned) [EMU142 (Stereoisomer 1)]	7.59

The remaining lines, values ahead:

pIC50	Structure (SMILES)
6.44	CC(C)N(C[C@H]1Cc2c(cccc2N2CCNCC2)CN1)[C@H]1CCCc2cccnc21 [EMU163]
7.88	C/C(=C/CN(C[C@H]1Cc2ccccc2CN1)[C@H]1CCCc2cccnc21)CN [EMU177]
6.37	NC(=O)NC/C=C/CN(CC1Cc2ncccc2CN1)[C@H]1CCCc2cccnc21 (single isomer, unassigned) [EMU212 (Stereoisomer 1)]
7.23	C(=C\CN(C[C@H]1Cc2ccccc2CN1)[C@H]1CCCc2cccnc21)/CNCc1ccccn1 [EMU223, (E)-N1-(pyridin-2-ylmethyl)-N4-(((R)-1,2,3,4-tetrahydroisoquinolin-3-yl)methyl)-N4-((S)-5,6,7,8-tetrahydroquinolin-8-yl)but-2-ene-1,4-diamine]
7.73	CN(C[C@H]1Cc2c(cccc2N2C[C@H]3CCN(C)[C@H]3C2)CN1)C1CCCc2cccnc21 (stereo partly shown) [EMU235]
8.01	Cc1cccnc1CN(CCCCN)C[C@H]1Cc2c(cccc2N2CCNCC2)CN1 [EMU166, (R)—N1-((3-methylpyridin-2-yl)methyl)-N1-((5-(piperazin-1-yl)-1,2,3,4-tetrahydroisoquinolin-3-yl)methyl)butane-1,4-diamine]
7.87	CN1CCC(N(C)c2cccc3c2C[C@H](CN(C)[C@H]2CCCc4cccnc42)NC3)CC1 [EMU240]
7.24	CN1Cc2cccc(N3CCN4CCC[C@H]4C3)c2C[C@@H]1CN(C)[C@H]1CCCc2cccnc21 [EMU241]
7.94	CN(C[C@H]1Cc2c(cccc2N2C[C@@H]3CCN(C)[C@@H]3C2)CN1)C1CCCc2cccnc21 (stereo partly shown) [EMU236]
7.55	C/C(=C/CN)CN(C[C@H]1Cc2ccccc2CN1)[C@H]1CCCc2cccnc21 [EMU208]
< 4.78	CN(C[C@H]1Cc2c(cccc2N2CCN(c3cccc(C(F)(F)F)c3)CC2)CN1)[C@H]1CCCc2cccnc21 [EMU226]
6.33	NC(=O)NC/C=C\CN(CC1Cc2ncccc2CN1)[C@H]1CCCc2cccnc21 (single isomer, unassigned) [EMU209 (Stereoisomer 1)]
6.94	Cc1ccc(CN(CCCCN)C[C@H]2Cc3c(cccc3N3CCNCC3)CN2)nc1 [EMU165, (R)—N1-((5-methylpyridin-2-yl)methyl)-N1-((5-(piperazin-1-yl)-1,2,3,4-tetrahydroisoquinolin-3-yl)methyl)butane-1,4-diamine]
7.86	CCN1CCN(c2cccc3c2C[C@H](CN(C)[C@H]2CCCc4cccnc42)NC3)CC1 [EMU199]
7.63	CN(C[C@H]1Cc2c(cccc2N2CCN(C3CC3)CC2)CN1)[C@H]1CCCc2cccnc21 [EMU196]
7.67	CN(C[C@H]1Cc2c(cccc2NCCN2CCOCC2)CN1)[C@H]1CCCc2cccnc21 [EMU173, (S)—N-methyl-N—(((R)-5-((2-morpholinoethyl)amino)-1,2,3,4-tetrahydroisoquinolin-3-yl)methyl)-5,6,7,8-tetrahydroquinolin-8-amine]
< 4.48	CN(CC1Cc2ncccc2CN1)[C@H]1CCCc2cccnc21 (single isomer, unassigned) [EMU174 (Stereoisomer 1)]
